Values joined by “and” are separate entries in the source; they are usually repeats but may differ in a detail not shown here. Identical values can stand only once.
How the values were obtained:
[1] = Methyl mercaptan suppression analysis by GC-PFPD, aqueous conditions (Examples 1-4); conditions: for Methyl Mercaptan Suppression (%): ethanol/deionized water, about 10 ppm methyl mercaptan sodium salt, room temperature 2 hours, replicate values; for suppression of the amount of methyl mercaptan (in words): lactone alone, 100 or 200 ppm, aqueous conditions, Tables 1-4
Source text: (§1) Methyl mercaptan suppression analysis was used to evaluate malodor elimination effects of the compounds. Methyl mercaptan is known to be a major oral malodor material. For example, methyl mercaptan is found in the oral cavity of halitosis patients and also found in malodor producing food products (e.g., garlic). A multipurpose sampler (MPS 2, Gerstel Inc, Baltimore Md.)—Gas Chromatography (6890N, Agilent Technologies Inc, Wilmington Del.) with the Pulsed Flame Photometric Detector (PFPD, model 5380, OI Analytical, College Station, Tx) was used for the methyl mercaptan analysis. 0.5% (w/v) sodium thiomethoxide, which is a sodium salt of methyl mercaptan (purchased from Aldrich chemical company, Inc. Allentown, Pa.) in deionized water was used as the methyl mercaptan stock solution, which was freshly prepared for every test day.
200 ppm or 100 ppm lactone (36 μl of 1% (200 ppm) or 0.5% (100 ppm) (w/v) of the test malodor eliminating compounds in 200 proof ethanol), 144 μl of 200 proof ethanol, and 1620 μl of deionized water were added into a 2 ml GC vial. The prepared vial was placed on a sample tray of the multipurpose sampler-GC-PFPD. 3.6 μl of methyl mercaptan stock solution was added in the GC vial using the multipurpose sampler, and the GC vial was left to sit at room temperature for 2 hours. 0.4 μl of the test solution was injected into the GC inlet (an Agilent tapered focus liner with glass wool was installed, split mode, 10:1 split ratio) using the multipurpose sampler. The carrier gas flow rate was 1.5 ml/min (in constant flow mode) and the Agilent DB-1MS UI column (L60 m×ID 0.250 mm×thickness 0.25 μm) was used for the analysis. […] The GC oven was held at 280° C. for 5 minutes. Ethanol alone was used as a blank control. The final concentration of test malodor eliminating compounds were 200 ppm or 100 ppm, and final methyl mercaptan sodium salt concentration was about 10 ppm.
Malodor (methyl mercaptan) suppression was calculated as follows: Malodor (methyl mercaptan) Suppression (%)=(GC area of blank control sample−GC area of test sample)/GC area of blank control sample×100.

[2] = Methyl mercaptan suppression analysis by GC-PFPD, non-aqueous (ethanol) conditions (Examples 5-9); conditions: for Methyl Mercaptan Suppression (%): 200 proof ethanol, 10 ppm methyl mercaptan sodium salt, room temperature 2 hours
Source text: as §1
For the screening test, 100 ppm lactone (20 μl of 0.5% of lactone in 200 proof ethanol (w/v)), 300 ppm lactone (30 μl of 1% of lactone in 200 proof ethanol (w/v)), 200 ppm phenolic compound (20 μl of 1% of phenolic compound in 200 proof ethanol (w/v)) and 300 ppm phenolic compound (30 μl of 1% of phenolic compound in 200 proof ethanol (w/v)) were tested. In addition, various combinations of a lactone and a phenolic compound were tested. The lactones and phenolic compounds were pipetted into 2 ml GC vials, and 200 proof ethanol was added up to 1000 μl. The prepared vial was placed on a sample tray of the multipurpose sampler-GC-PFPD. 2 μl methyl mercaptan stock solution was added in the GC vial utilizing the multipurpose sampler, and the vial was left to sit at room temperature for 2 hours. 0.4 μl of the test solution was injected into the GC inlet (an Agilent tapered focus liner with glass wool was installed, split mode, 10:1 split ratio) using the multipurpose sampler. The carrier gas flow rate was 1.5 ml/min (in constant flow mode) and the Agilent DB-1 MS UI column (L60 m×ID 0.250 mm×thickness 0.25 μm) was used for the analysis. The temperature of the GC oven started at 40° C. and after 5 minutes, the temperature was increased to 180° C. at a speed of 20° C./min, and subsequently to 280° C. at a speed of 40° C./min, which was held for 5 minutes.
200 proof ethanol alone was used as a blank control. The final concentration of the methyl mercaptan sodium salt was 10 ppm.
Malodor (methyl mercaptan) suppression was calculated as follows: Malodor (methyl mercaptan) Suppression (%)=(GC area of blank control sample−GC area of test sample)/GC area of blank control sample×100.

[3] = 200 ppm test compound alone, values of several testing sets
[4] = 300 ppm test compound alone, replicate values

Structure (SMILES)	Methyl Mercaptan Suppression (%) ([1]; 100 ppm test compound alone)	suppression of the amount of methyl mercaptan (in words) [1]	Methyl Mercaptan Suppression (%) [2, 4]	also measured
O=C1C=CCO1 [2(5H) furanone]	97% and 95% and 100%	suppressed the amount of methyl mercaptan		
CCCCOCc1ccc(O)c(OC)c1 [Hotact ®VBE, vanillyl butyl ether]			13% (2×) and 10%	Methyl Mercaptan Suppression (%) [2, 3]: 13% and 7% and 8% and 10% and 12% and 17%
CC1=CCC(=O)O1 [angelica lactone alpha]	47% and 31% and 69%	suppressed the amount of methyl mercaptan	32% and 22% and 30%	Methyl Mercaptan Suppression (%) ([1]; 200 ppm test compound alone): 94% and 93% and 86%
CC1C=CC(=O)O1 (stereo not drawn) [angelica lactone beta]	10% and 26% and 41%	suppressed the amount of methyl mercaptan		
O=C1O[C@H]([C@@H](O)CO)C(O)=C1O [ascorbic acid, reference compound]				Methyl Mercaptan Suppression (%) [2, 3]: 11%; synergistic malodor suppression or elimination effect of the combination with a phenolic compound (in words) ([2]; ethanol conditions, combination compared with additive effect of single components): do not exhibit a synergistic malodor elimination effect when combined with phenolic compounds
C=CCc1ccc(O)c(OC)c1 [eugenol]			8% and 14% and 11%	
COC(=O)c1ccccc1O [methyl salicylate]			9% and 10% and 8%	
CC1=C2CCC(C)CC2OC1=O (stereo not shown) [mint lactone]		suppressed the amount of methyl mercaptan		Methyl Mercaptan Suppression (%) ([1]; 200 ppm test compound alone): 87% and 100% (2×)

Source: patent US10945938B2, “Lactone-containing compositions for malodor elimination” (Takasago International Corporation, priority 2014, dated 2021)
